{
  "source": "patent US20130011393A1",
  "about": "“BAD PATHWAY GENE SIGNATURE” (priority 2010, published 2013)",
  "type_in_all_cases": "cell-based, human",
  "key": {"[1]": {"tested_on": "OVCA cell lines (A2780S, A2780CP, A2008, C13)", "assay": "Cisplatin-resistance by CellTiter-96 MTS proliferation assay in serially cisplatin-treated OVCA cell lines", "details": "after in vitro cisplatin-treatment/expansion cycles versus cells prior to serial cisplatin treatment", "description": "Acquisition and culture conditions for the expansion of OVCA cells lines (T8, OVCAR5, OV2008, IGROV1, C13, A2780S, A2780CP, and A2008) were reported previouslyl^10. Cells were subjected to sequential treatment with increasing doses of cis-diammine-dichloroplatinum (cisplatin), using three dosing schedules resulting in […] treatment/expansion cycles. Treatment schedules A, B, and C included three treatments with 1, 2, and 3 μg/mL cisplatin, respectively, followed by three treatments with 3, 4, and 5 μg/mL, respectively. Each cisplatin treatment was followed by a cell recovery/expansion phase. Both cisplatin-resistance and genome-wide expression changes were measured serially in each cell line at baseline and after 3 and 6 cisplatin-treatment/expansion cycles. Cisplatin-resistance was quantified using CellTiter-96 MTS proliferation assays (Fisher Scientific) and analyzed genome-wide expression using Affymetrix Human U133 Plus 2.0 GeneChips as previously described^10,11 (Gene Expression Omnibus (GEO) accession number GSE23553).\nMany of the BAD-pathway genes found to be associated with evolution of in vitro cisplatin-resistance are known to influence BAD phosphorylation (FIG. 12). The inventors therefore tested the hypothesis that BAD-phosphorylation status is associated with OVCA cisplatin-resistance. […]"}, "A2780S and A2780CP cells": {"tested_on": "A2780S and A2780CP cells", "assay": "Apoptotic nuclei after cisplatin in cells transfected with BAD phosphorylation-site mutants", "details": "1 μM (A2780S) or 10 μM (A2780CP) cisplatin, 48 hours", "description": "(§1) In FIGS. 14A and 14B, OVCA cell lines A2780S and A2780CP, respectively, were transfected with Flag vectors expressing wild-type BAD (WT) or BAD harboring serine (S) to alanine point mutations in serine-112, -136, or -155 (S112A, S136A, S155A). These S to A phosphorylation site mutations prevent phosphorylation of the BAD protein. Transfected cells were treated with vehicle or 1 μM (A2780S) or 10 μM (A2780CP) cisplatin for 48 hours and evaluated for the presence of apoptotic nuclei. FIG. 14C is a Western blot showing depletion of PP2C and PKA by siRNA. Controls included a non-targeting siRNA (NT). GAPDH was used as a loading control. […] Error bars indicate standard error of the mean.\n(§2) RNA duplexes for PP2C/PPM1A (s10909 from ABI), cAMP-dependent protein kinase (PKA; 6406 from Cell Signaling), and vectors containing mutated BAD (pFlag-600, a kind gift from Dr. Hong Gang Wang, MCC) were transfected using the Nucleofector transfection kit, with non-targeting Silencer negative control #2 siRNA (ABI), according to manufacturer's protocols (Amaxa).\n(§3) Morphologic assessment of condensed chromatin and fragmented DNA quantified percent apoptotic nuclei. Cells were fixed in 4% paraformaldehyde, and nuclei were stained with bis-benzimide trihydrochloride (0.5 μg/ml; Molecular Probes) and quantified using fluorescence microscopyl^5."}, "A2780S cells": {"tested_on": "A2780S cells", "assay": "Apoptotic nuclei after cisplatin following siRNA depletion of PKA or PP2C/PPM1A", "details": "1 μM cisplatin", "description": "as §1, §2, §3"}},
  "data": [
    {"smiles": "N.N.[Cl][Pt][Cl]", "note": "[cisplatin, cis-diammine-dichloroplatinum]", "values": [
      {"measurement": "cisplatin EC50", "setting": "[1]", "result": "higher"},
      {"measurement": "cisplatin sensitivity (apoptotic nuclei)", "setting": "A2780S and A2780CP cells; cells transfected with BAD[112A]", "result": "no effect"},
      {"measurement": "cisplatin-induced apoptosis (apoptotic nuclei)", "setting": "A2780S and A2780CP cells; cells transfected with BAD[S136A], BAD[S155A] versus wild-type BAD", "result": "increased"},
      {"measurement": "cisplatin-induced apoptosis (percent apoptotic nuclei)", "setting": "A2780S cells; siRNA depletion of PKA versus non-targeting control siRNA", "result": "increased"},
      {"measurement": "cisplatin-induced apoptosis (percent apoptotic nuclei)", "setting": "A2780S cells; siRNA depletion of PP2C/PPM1A", "result": "decreased"}
    ]}
  ]
}
